Columns and labels:
[1] = target: T1, Orexin/Hypocretin receptor type 1 (Homo sapiens) (UniProt O43613); experiment: Agonist activity against human orexin 1 receptor; EC50; nM; assay type: functional
T1 sequence (whole entry): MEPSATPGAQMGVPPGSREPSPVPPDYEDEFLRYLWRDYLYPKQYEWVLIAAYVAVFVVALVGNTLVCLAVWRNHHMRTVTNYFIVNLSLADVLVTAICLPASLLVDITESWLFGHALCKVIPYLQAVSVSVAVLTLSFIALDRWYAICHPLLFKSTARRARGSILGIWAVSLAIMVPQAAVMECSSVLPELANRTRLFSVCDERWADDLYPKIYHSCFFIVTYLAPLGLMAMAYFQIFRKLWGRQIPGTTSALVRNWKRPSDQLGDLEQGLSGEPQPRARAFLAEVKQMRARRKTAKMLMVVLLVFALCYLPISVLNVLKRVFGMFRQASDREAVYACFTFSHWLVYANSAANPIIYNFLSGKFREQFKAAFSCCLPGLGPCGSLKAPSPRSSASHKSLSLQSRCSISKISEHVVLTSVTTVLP

[2] = target: T2, Orexin receptor type 2 (Homo sapiens) (UniProt O43614); experiment: (§1) Agonist activity against human orexin 2 receptor; EC50; nM; assay type: functional
T2 sequence (whole entry): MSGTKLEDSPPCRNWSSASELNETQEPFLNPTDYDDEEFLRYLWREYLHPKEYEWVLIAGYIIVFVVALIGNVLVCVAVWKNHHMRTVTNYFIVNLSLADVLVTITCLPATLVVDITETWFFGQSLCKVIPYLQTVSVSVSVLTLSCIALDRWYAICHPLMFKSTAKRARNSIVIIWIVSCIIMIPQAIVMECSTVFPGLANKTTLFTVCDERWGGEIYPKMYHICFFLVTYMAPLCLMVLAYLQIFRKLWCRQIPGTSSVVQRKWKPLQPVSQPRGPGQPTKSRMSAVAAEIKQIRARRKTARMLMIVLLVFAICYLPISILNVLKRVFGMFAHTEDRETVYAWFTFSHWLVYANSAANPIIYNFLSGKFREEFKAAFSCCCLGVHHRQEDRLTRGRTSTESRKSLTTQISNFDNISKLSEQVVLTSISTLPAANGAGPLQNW

Homo sapiens = species: Homo sapiens; experiment: (§2) Agonist selectivity for orexin receptor 1 versus orexin receptor 2; assay type: functional
[3] = as §2; assay type: functional, Homo sapiens
Orexin receptor type 2 = target: T3, Orexin receptor type 2 (Homo sapiens, UniProt O43614); experiment: as §1; assay type: functional
T3 sequence (O43614 whole entry): T2 sequence (whole entry)

Compound	EC50 [1]	EC50 [2]	selectivity (Homo sapiens)	selectivity [3]	EC50 (Orexin receptor type 2)
CC[C@H](C)[C@H](NC(=O)[C@H](CC(C)C)NC(=O)[C@@H](NC(=O)[C@@H](N)CCSC)[C@@H](C)O)C(=O)NCC(=O)N[C@@H](C)C(=O)N[C@@H](C)C(=O)N[C@@H](Cc1c[nH]cn1)C(=O)N[C@@H](CC(N)=O)C(=O)NCC(=O)N[C@@H](CO)C(=O)N[C@@H](C)C(=O)N[C@@H](CCC(N)=O)C(=O)N[C@@H](CC(C)C)C(=O)N[C@H](CC(C)C)C(=O)N[C@@H](CCCN=C(N)N)C(=O)N[C@@H](CCC(N)=O)C(=O)N[C@@H](C)C(=O)N[C@@H](CCCN=C(N)N)C(=O)NCC(=O)N[C@@H](CCC(N)=O)C(=O)N[C@@H](CC(C)C)C(=O)NCC(=O)N1CCC[C@H]1C(=O)N1CCC[C@H]1C(=O)NCC(=O)N[C@@H](CO)C(=O)N[C@@H](CCCN=C(N)N)C(N)=O	270 nM	1.9 nM	140	–	–
CC[C@H](C)[C@H](NC(=O)[C@H](CC(C)C)NC(=O)[C@@H](NC(=O)[C@@H](N)CCSC)[C@@H](C)O)C(=O)NCC(=O)N[C@@H](C)C(=O)N[C@@H](C)C(=O)N[C@@H](Cc1c[nH]cn1)C(=O)N[C@@H](CC(N)=O)C(=O)NCC(=O)N[C@@H](CO)C(=O)N[C@@H](C)C(=O)N[C@@H](CCC(N)=O)C(=O)N[C@H](CC(C)C)C(=O)N[C@@H](CC(C)C)C(=O)N[C@@H](CCCN=C(N)N)C(=O)N[C@@H](CCC(N)=O)C(=O)N[C@@H](C)C(=O)N[C@@H](CCCN=C(N)N)C(=O)NCC(=O)N[C@@H](CCC(N)=O)C(=O)N[C@@H](CC(C)C)C(=O)NCC(=O)N1CCC[C@H]1C(=O)N1CCC[C@H]1C(=O)NCC(=O)N[C@@H](CO)C(=O)N[C@@H](CCCN=C(N)N)C(N)=O	52 nM	0.13 nM	400	–	–
H-MTLIGAAHNGSAQLLRQLRGQLGPPGAR-NH2	–	–	–	–	0.22 nM

More lines, now with the values ahead:

EC50 [1]	EC50 [2]	selectivity (Homo sapiens)	selectivity [3]	EC50 (Orexin receptor type 2)	Compound
0.83 nM	0.081 nM	10	10	–	CC[C@H](C)[C@H](NC(=O)[C@H](CC(C)C)NC(=O)[C@@H](NC(=O)[C@@H](N)CCSC)[C@@H](C)O)C(=O)NCC(=O)N[C@@H](C)C(=O)N[C@@H](C)C(=O)N[C@@H](Cc1c[nH]cn1)C(=O)N[C@@H](CC(N)=O)C(=O)NCC(=O)N[C@@H](CO)C(=O)N[C@@H](C)C(=O)N[C@@H](CCC(N)=O)C(=O)N[C@@H](CC(C)C)C(=O)N[C@@H](CC(C)C)C(=O)N[C@@H](CCCN=C(N)N)C(=O)N[C@@H](CCC(N)=O)C(=O)N[C@@H](CC(C)C)C(=O)N[C@@H](CCCN=C(N)N)C(=O)NCC(=O)N[C@@H](CCC(N)=O)C(=O)N[C@@H](CC(C)C)C(=O)NCC(=O)N1CCC[C@H]1C(=O)N1CCC[C@H]1C(=O)NCC(=O)N[C@@H](CO)C(=O)N[C@@H](CCCN=C(N)N)C(N)=O [OREXIN B]
–	–	–	–	0.87 nM	CC[C@H](C)[C@H](NC(=O)[C@H](CC(C)C)NC(=O)[C@@H](NC(=O)[C@@H](N)CCSC)[C@@H](C)O)C(=O)NCC(=O)N[C@@H](C)C(=O)N[C@@H](C)C(=O)N[C@@H](Cc1c[nH]cn1)C(=O)N[C@@H](CC(N)=O)C(=O)NCC(=O)N[C@@H](CO)C(=O)N[C@@H](C)C(=O)N[C@@H](CCC(N)=O)C(=O)N[C@@H](CC(C)C)C(=O)N[C@@H](CC(C)C)C(=O)N[C@@H](CCCN=C(N)N)C(=O)N[C@@H](CCC(N)=O)C(=O)N[C@@H](CC(C)C)C(=O)N[C@H](CCCN=C(N)N)C(=O)NCC(=O)N[C@@H](CCC(N)=O)C(=O)N[C@@H](CC(C)C)C(=O)NCC(=O)N1CCC[C@H]1C(=O)N1CCC[C@H]1C(=O)NCC(=O)N[C@@H](CO)C(=O)N[C@@H](CCCN=C(N)N)C(N)=O
–	–	–	–	0.13 nM	H-MTLIGAAHNGSAALLRQLRGQLGPPGSR-NH2
–	–	–	–	0.13 nM	CC[C@H](C)[C@H](NC(=O)[C@H](CC(C)C)NC(=O)[C@@H](NC(=O)[C@@H](N)CCSC)[C@@H](C)O)C(=O)NCC(=O)N[C@@H](C)C(=O)N[C@@H](C)C(=O)N[C@@H](Cc1cnc[nH]1)C(=O)N[C@@H](CC(N)=O)C(=O)NCC(=O)N[C@@H](CO)C(=O)N[C@@H](C)C(=O)N[C@@H](CCC(N)=O)C(=O)N[C@@H](CC(C)C)C(=O)N[C@@H](CC(C)C)C(=O)N[C@@H](CCCN=C(N)N)C(=O)N[C@@H](CCC(N)=O)C(=O)N[C@@H](CC(C)C)C(=O)N[C@@H](CCCN=C(N)N)C(=O)N[C@H](C)C(=O)N[C@@H](CCC(N)=O)C(=O)N[C@@H](CC(C)C)C(=O)NCC(=O)N1CCC[C@H]1C(=O)N1CCC[C@H]1C(=O)NCC(=O)N[C@@H](CO)C(=O)N[C@@H](CCCN=C(N)N)C(N)=O
